Reference: US7846928B2, “Substituted pyrazolopyridines and salts thereof, pharmaceutical compositions comprising same, methods of preparing same and uses of same” (Bayer Schering Pharma AG, priority 2006, dated 2010)

How the values were obtained:
Tie2 [1] = target: T1, Tie2 (Homo sapiens, UniProt Q02763); test: Tie2 ELISA assay (assay 1): cellular Tie2 autophosphorylation in Tie2-transfected CHO cells stimulated by angiopoietin-2; assay type: cell-based; parameters: expressed in transfected cells; host or cells: CHO (DHFR-deficient), stably transfected: CHO Tie2/DHFR; details: CHO Tie2/DHFR cells, Ang2 stimulated, Tie2 autophosphorylation sandwich-ELISA; pIC50 = -log IC50 molar; read-out: Tie 2 activity (assay 1)
Protocol: Cellular activity of compounds of the present invention as inhibitors of Tie2 kinase activity was measured employing a Tie2 ELISA assay as described in the following paragraphs. Herein CHO cell-cultures, which are stably transfected by known techniques with Tie2 using DHFR deficiency as selection marker, are stimulated by angiopoietin-2. The specific autophosphorylation of Tie2 receptors is quantified with a sandwich-ELISA using anti-Tie2 antibodies for catch and anti-phosphotyrosine antibodies coupled to HRP for detection.
• 96 well tissue culture plate, sterile, Greiner • 96 well FluoroNunc plate MaxiSorp Surface C, Nunc • 96 well plate polypropylene for compound dilution in DMSO • CHO Tie2/DHFR (transfected cells) • PBS−; PBS++, DMSO • MEM alpha Medium with Glutamax-I without Ribonucleosides and • Deoxyribonucleosides (Gibco #32561-029) • with 10% FCS after dialysis! and 1% PenStrep • Lysis buffer: 1 Tablet “Complete” protease inhibitor • 1 cap Vanadate (1 mL>40 mg/mL; working solution 2 mM) • ad 50 mL with Duschl-Puffer • pH 7.6 • Anti-Tie2-antibody 1:425 in Coating Buffer pH 9.6 • Stock solution: 1.275 mg/mL>working: 3 μg/mL • PBST: 2 bottles PBS(10×)+10 ml Tween, fill up with VE-water • RotiBlock 1:10 in VE-water • Anti-Phosphotyrosine HRP-Conjugated 1:10000 in 3% TopBlock • 3% TopBlock in PBST • BM Chemiluminescence ELISA Substrate (POD) • solution B1:100 solution A • SF9 cell culture medium • Ang2-Fc in SF9 cell culture medium Cell Experiment: • Dispense 5×10^4 cells/well/98 μL in 96 well tissue culture plate • Incubate at 37° C./5% CO2 • After 24 h add compounds according to desired concentrations • Add also to control and stimulated values without compounds 2 μL DMSO • And mix for a few min at room temperature • Add 100 μL Ang2-Fc to all wells except control, which receives insect medium • Incubate 20 min at 37° C. • Wash 3× with PBS++ • Add 100 μl Lysis buffer/well and shake a couple of min at room temperature • Store lysates at 20° C. before utilizing for the ELISA Performance of Sandwich-ELISA • Coat 96 well FluoroNunc Plate MaxiSorp Surface C with anti-Tie2 mAb • 1:425 in Coating buffer pH 9.6; 100 μL/well overnight at 4° C. • Wash 2× with PBST • Block plates with 250 μL/well RotiBlock 1:10 in VE-water • Incubate for 2 h at room temperature or overnight at 4° C. shaking • Wash 2× in PBST • Add thawed lysates to wells and incubate overnight shaking at 4° C. • Wash 2× with PBST • Add 100 μL/well anti-Phosphotyrosine HRP-Conjugated 1:10000 in 3% • TopBlock (3% TopBlock in PBST) and incubate overnight under shaking • Wash 6× with PBST • Add 100 μL/well BM Chemiluminescence ELISA Substrate (POD) • solutions 1 und 2 (1:100) • Determine luminescence with the LumiCount. Assay 2: Tie-2-Kinase HTRF-Assay without Kinase Preactivation
Target sequence in this assay (Q02763 23-1124): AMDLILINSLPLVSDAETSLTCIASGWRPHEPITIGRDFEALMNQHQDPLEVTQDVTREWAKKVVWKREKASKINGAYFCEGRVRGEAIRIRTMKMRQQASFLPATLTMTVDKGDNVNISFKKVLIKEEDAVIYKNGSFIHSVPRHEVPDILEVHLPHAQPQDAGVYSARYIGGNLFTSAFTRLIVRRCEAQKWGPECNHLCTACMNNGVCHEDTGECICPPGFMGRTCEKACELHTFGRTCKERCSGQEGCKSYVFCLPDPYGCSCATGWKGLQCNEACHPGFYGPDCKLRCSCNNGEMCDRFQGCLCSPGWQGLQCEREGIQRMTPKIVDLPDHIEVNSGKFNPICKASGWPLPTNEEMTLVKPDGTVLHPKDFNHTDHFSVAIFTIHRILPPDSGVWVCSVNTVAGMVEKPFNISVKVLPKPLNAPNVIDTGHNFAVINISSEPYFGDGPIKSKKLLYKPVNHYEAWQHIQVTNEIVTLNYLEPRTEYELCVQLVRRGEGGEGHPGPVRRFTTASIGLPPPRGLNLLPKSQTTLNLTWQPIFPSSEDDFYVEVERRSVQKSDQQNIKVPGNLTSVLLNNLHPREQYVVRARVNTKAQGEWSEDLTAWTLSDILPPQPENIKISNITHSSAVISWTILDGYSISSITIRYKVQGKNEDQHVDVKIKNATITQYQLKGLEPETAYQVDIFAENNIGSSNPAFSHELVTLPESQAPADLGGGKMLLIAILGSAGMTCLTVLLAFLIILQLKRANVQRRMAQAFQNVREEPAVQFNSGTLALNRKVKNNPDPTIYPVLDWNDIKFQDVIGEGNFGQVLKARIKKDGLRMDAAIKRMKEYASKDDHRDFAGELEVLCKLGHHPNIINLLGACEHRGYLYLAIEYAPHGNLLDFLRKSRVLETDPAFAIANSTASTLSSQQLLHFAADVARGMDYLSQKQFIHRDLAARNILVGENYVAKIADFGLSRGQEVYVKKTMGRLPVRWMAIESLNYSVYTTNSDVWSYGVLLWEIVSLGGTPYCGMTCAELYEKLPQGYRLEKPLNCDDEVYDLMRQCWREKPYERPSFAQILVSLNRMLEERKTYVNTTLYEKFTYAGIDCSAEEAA

Tie2 [2] = target: T1, Tie2; test: Tie-2-Kinase HTRF-Assay without kinase preactivation (assay 2); assay type: biochemical; parameters: fusion protein of GST and the intracellular domains of Tie-2; GST; made in house; host or cells: insect cells (Hi-5); details: GST-Tie-2 without preactivation, 10 μM ATP; pIC50 = -log IC50 molar
From the text: Tie2-inhibitory activity of compounds of the present invention was quantified employing two Tie2 HTRF assay as described in the following paragraphs.
A recombinant fusion protein of GST and the intracellular domains of Tie-2, expressed in insect cells (Hi-5) and purified by Glutathion-Sepharose affinity chromatography was used as kinase. Alternatively, commercially available GST-Tie2-fusion protein (Upstate Biotechnology, Dundee, Scotland) can be used As substrate for the kinase reaction the biotinylated peptide biotin-Ahx-EPKDDAYPLYSDFG (C-terminus in amid form) was used which can be purchased e.g. from the company Biosynthan GmbH (Berlin-Buch, Germany). Detection of phosphorylated product is achieved specifically by a trimeric detection complex consisting of the phosphorylated substrate, streptavidin-XLent (SA-XLent) which binds to biotin, and Europium Cryptate-labeled anti-phosphotyrosine antibody PT66 which binds to phosphorylated tyrosine.
Tie-2 (3.5 ng/measurement point) was incubated for 60 min at 22° C. in the presence of 10 μM adenosine-tri-phosphate (ATP) and 1 μM substrate peptide (biotin-Ahx-EPKDDAYPLYSDFG-NH2) with different concentrations of test compounds (0 μM and concentrations in the range 0.001-20 μM) in 5 μl assay buffer [50 mM Hepes/NaOH pH 7, 10 mM MgCl2, 0.5 mM MnCl2, 1.0 mM dithiothreitol, 0.01% NP40, protease inhibitor mixture (“Complete w/o EDTA” from Roche, 1 tablet per 2.5 ml), 1% (v/v) dimethylsulfoxide]. The reaction was stopped by the addition of 5 μl of an aqueous buffer (25 mM Hepes/NaOH pH 7.5, 0.28% (w/v) bovine serum albumin) containing EDTA (90 mM) and the HTRF (Homogeneous Time Resolved Fluorescence) detection reagents streptavidine-XLent (0.2 μM, from Cis Biointernational, Marcoule, France) and PT66-Eu-Chelate (0.3 ng/μl; a europium-chelate labelled anti-phospho-tyrosine antibody from Perkin Elmer).
The resulting mixture was incubated 1 h at 22° C. to allow the binding of the biotinylated phosphorylated peptide to the streptavidine-XLent and the PT66-Eu-Chelate. Subsequently the amount of phosphorylated substrate peptide was evaluated by measurement of the resonance energy transfer from the PT66-Eu-Chelate to the streptavidine-XLent. Therefore, the fluorescence emissions at 620 nm and 665 nm after excitation at 350 nm was measured in a HTRF reader, e.g. a Rubystar (BMG Labtechnologies, Offenburg, Germany) or a Viewlux (Perkin-Elmer). The ratio of the emissions at 665 nm and at […] was taken as the measure for the amount of phosphorylated substrate peptide. The data were normalised (enzyme reaction without inhibitor=0% inhibition, all other assay components but no enzyme=100% inhibition) and IC50 values were calculated by a 4 parameter fit using an inhouse software.
Target sequence in this assay (Q02763 770-1124 limits assumed): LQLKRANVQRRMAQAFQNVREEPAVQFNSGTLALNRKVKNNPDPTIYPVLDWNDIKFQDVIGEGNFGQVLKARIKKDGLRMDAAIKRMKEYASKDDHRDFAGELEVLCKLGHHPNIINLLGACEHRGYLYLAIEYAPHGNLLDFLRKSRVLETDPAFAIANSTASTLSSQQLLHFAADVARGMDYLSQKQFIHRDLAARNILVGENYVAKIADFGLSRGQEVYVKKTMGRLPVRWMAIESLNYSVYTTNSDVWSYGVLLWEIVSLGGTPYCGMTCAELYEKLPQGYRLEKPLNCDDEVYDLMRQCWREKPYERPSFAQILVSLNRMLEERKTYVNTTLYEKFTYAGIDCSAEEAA

IC50 (Tie2 [1]) [nM]	IC50 (Tie2 [2]) [nM]	melting point [°C]	SMILES
< 501	1000 to 10000	–	CC(C)c1cc(-c2ccc(NC(=O)Nc3cccc(C(F)(F)F)c3)cc2)c2cnn(CCCN3CCOCC3)c2n1 [1.25, 1-{4-[6-Isopropyl-1-(3-morpholin-4-yl-propyl)-1H-pyrazolo[3,4-b]pyridin-4-yl]-phenyl}-3-(3-trifluoromethyl-phenyl)-urea]
–	–	236	Cc1cc(-c2ccc(NC(=O)Nc3cc(C(F)(F)F)ccc3N3CCCC3)cc2)c2cnn(C)c2n1 [2.8, 1-[4-(1,6-Dimethyl-1H-pyrazolo[3,4-b]pyridin-4-yl)-phenyl]-3-(2-pyrrolidin-1-yl-5-trifluoromethyl-phenyl)-urea]
< 501	< 501	–	Cn1ncc2c(-c3ccc(NC(=O)Nc4cccc(C(F)(F)F)c4)cc3)cc(C3(C(=O)N4CCCC4)CC3)nc21 [1.27, 1-(4-{1-Methyl-6-[1-(pyrrolidine-1-carbonyl)-cyclopropyl]-1H-pyrazolo[3,4-b]pyridin-4-yl}-phenyl)-3-(3-trifluoromethyl-phenyl)-urea]
